Reference: PMC9821961, “Ring-Modified Histidine-Containing Cationic Short Peptides Exhibit Anticryptococcal Activity by Cellular Disruption” (Molecules, 2022)
In brackets after ≈: the same amount, converted by molar mass. Several values for one entry are separate records, joined by “and”; a condition that tells them apart may be missing. Identical values can stand only once. Like-named read-outs stand apart in the source and are kept apart here.

Experiments:
C. neoformans = assay: microbe, parasite or virus in culture; assay type: cell-based, Cryptococcus neoformans; conditions: 48 h
Method in brief: (§1)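 Broth microdilution per CLSI was run on peptides serially diluted two-fold from DMSO stocks. Fungi (C. neoformans, C. glabrata) were tested at 10^3 CFU/mL in RPMI 1640/YPED for 48 h at 30 °C, and bacteria (S. aureus, E. faecalis) at 10^5 CFU/mL in Mueller Hinton for 24 h at 37 °C. IC50 and MIC came from OD600, with MTT staining used to visualise growth.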

C. albicans = assay: microbe, parasite or virus in culture; assay type: cell-based, Candida albicans; conditions: 48 h
Method in brief: (§2)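 Growth inhibition was measured by broth microdilution. MIC and IC50 were calculated from optical density at 600 nm after 48 h at 30 °C for Candida and Cryptococcus (10^3 CFU/mL, RPMI 1640 or YPED) and after 24 h at 37 °C for the Gram-positive bacteria (10^5 CFU/mL, Mueller Hinton).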

C. glabrata = assay: microbe, parasite or virus in culture; assay type: cell-based, Candida glabrata; conditions: 48 h
Method in brief: as §1

C. parapsilosis = assay: microbe, parasite or virus in culture; assay type: cell-based, Candida parapsilosis; conditions: 48 h
Method in brief: as §2

C. krusei = assay: microbe, parasite or virus in culture; assay type: cell-based, Candida krusei; conditions: 48 h
Method in brief: as §2

E. faecalis = assay: microbe, parasite or virus in culture; assay type: cell-based, Enterococcus faecalis; conditions: 48 h
S. aureus = assay: microbe, parasite or virus in culture; assay type: cell-based, Staphylococcus aureus; conditions: 48 h
From the text: Microbial strains: Microbial strains were procured from National Culture Collection of Pathogenic Fungi (NCCPF) at the Postgraduate Institute of Medical Education & Research (PGIMER), Chandigarh and Microbial Type Culture Collection and Gene bank (MTCC) at the Institute of Microbial Technology (IMTECH), Chandigarh, India. Peptides were screened against five different strains of fungi: viz. Candida albicans (NCCPF400034), Candida glabrata (MTCC 3019), Candida parapsilosis (NCCPF 440002), Candida krusei (NCCPF 440002) and Cryptococcus neoformans (NCCPF250316), and five strains of bacteria: viz. Escherichia coli (MTCC 2961), Staphylococcus aureus (MTCC 3160), Enterococcus faecalis (MTCC 439), Streptococcus pyogenes (MTCC 442) and Pseudomonas aeruginosa (MTCC 3542).
Growth media: Antifungal susceptibility testing was carried out using standard broth microdilution assays as per the Clinical and Laboratory Standards Institute (CLSI) guidelines for fungi. RPMI 1640 (Sigma), yeast extract, peptone and dextrose (YPED, Himedia) were used as the incubation broths. The cells were diluted to a cell density of 10^3 colony forming unit (CFU/mL) and incubated at 30 °C for 48 h. Furthermore, Muller Hinton (Himedia) media was utilized for bacterial strains and antibacterial activity was evaluated per CLSI guidelines for bacteria. […] Amphotericin B (Himedia, India) and rifampicin (Himedia, India) were used as standard drugs for the evaluation of activity against all the fungal and bacterial strains, respectively.
The stock solutions of peptides (2 mg/mL) were prepared in DMSO. Specific amounts of peptide from stock solution were added to a 96-well microtiter plate containing 100 μL of growth media and then serially diluted two-fold. A further 100 μL of growth media containing microbial cells were added to each well and incubated at 30–37 °C for 24–48 h. The optical density (OD) was measured at 600 nm using a BioStack Ready (BioTek Instruments, Winooski, VT, USA) microplate reader to analyze microbial growth inhibition, and IC50 and MIC values were calculated. To visualize the growth and inhibition pattern, a solution of 3-(4,5-dimethylthiazol-2-yl)-2,5-diphenyltetrazolium bromide (MTT) in water was added to the plate and incubated for 2–3 h. MTT reacts with the mitochondrial dehydrogenases, which are present only in a viable cell, to give blue colored formazan crystals. Therefore, a darker color indicates a high number of viable cells; however, non-viable cells appear pale or colorless.

P. aeruginosa = assay: microbe, parasite or virus in culture; assay type: cell-based, Pseudomonas aeruginosa; conditions: 48 h
C. neoformans cells [1] = assay: CLSM FITC-labeled peptide uptake assay; assay type: cell-based, Cryptococcus neoformans; conditions: FITC-tagged peptide, 12 h
Procedure: After incubation, cells were harvested by centrifugation at 2000× g for 10 min at 4 °C and suspended in PBS and mounted on a slide for visualization under a confocal microscope with excitation and emission wavelengths of 488 nm and 515 nm, respectively.

[2] = tested on: C. neoformans (ATCC350) cells; assay: CLSM PI uptake assay; assay type: cell-based, Cryptococcus neoformans; conditions: at MIC, 12 h, then PI
Procedure: After incubation, treated and untreated cells were centrifuged at 2000× g for 10 min at 4 °C and suspended in cold PBS and followed by 2–3 washings with PBS. The cells were then incubated with PI (1.49 μM) for 1 h at room temperature with constant shaking (150× g rpm), and later harvested by centrifugation and suspended in PBS. Then, the cells were examined using confocal microscopy (Olympus Fluoview™ FV1000 SPD; Olympus, Tokyo, Japan) with a wavelength of >560 nm for PI. C. neoformans cells without treatment of active peptides served as a control.

[3] = tested on: C. neoformans (ATCC350) cells; assay: CLSM DAPI uptake assay; assay type: cell-based, Cryptococcus neoformans; conditions: at MIC, 12 h, then DAPI
Procedure: After incubation, treated and untreated cells were centrifuged at 2000× g for 10 min at 4 °C and suspended in cold PBS and followed by 2–3 washings with PBS. The cells were then incubated with DAPI (3.01 μM) for 10 min at room temperature with constant shaking, harvested by centrifugation and suspended in PBS. Then, the fungal cells were examined using confocal microscopy (Olympus Fluoview™ FV1000 SPD; Olympus, Tokyo, Japan) with excitation at 350 nm and emission at 470 nm.

Red blood cells (RBCs) = conditions: for % Hemolysis HC10 / % Hemolysis HC50: red cells of human
Procedure: Human blood in 10% citrate phosphate dextrose was obtained from Government Hospital, Chandigarh, India. Red blood cells (RBCs) were harvested by spinning at 1000× g for 5 min followed by washing with PBS 3–5 times. The packed cell volume was obtained and utilized to make a 0.8% (v/v) suspension of RBCs in PBS. […] The plate was incubated at 37 °C for 60 min followed by centrifugation at 1000× g for 5 min at 25 °C. The supernatant (100 μL) was transferred to a fresh microtiter plate and absorbance was recorded at 414 nm (Varioskan LUX multimode microplate reader, Thermo Scientific, Waltham, MS, USA) to analyze RBC lysis. Untreated RBCs in PBS and lysed RBCs in 0.1% Triton X-100 were used as negative and positive controls, respectively [29]. Percent hemolysis was calculated using following equation [38]. (3) % Hemolysis=Absorbance of treated sample−Absorbance of negative control/Absorbance of positive control−Absorbance of negative control×100

Cryptococcal cells = conditions: for MIC Alone: cryptococcal cells, agent alone
in vitro = conditions: human, HEK-293 cells
Procedure: (§3) The cells (50,000 cells/well) were seeded to the wells of the plate in Dulbecco’s Modified Eagle Medium (DMEM) supplemented with 10% fetal bovine serum at 37 °C overnight and incubated for 24 h to achieve confluency. Peptides at different concentrations of 50, 25, 12.5, 6.25, 3.12, 1.56 and 0.78 μg/mL were added to the cells in separate wells and incubated at 37 °C for 18 h. A further 20 µL MTT solution (5 mg/mL stock conc. in PBS) was added and the plate was incubated for another 3–4 h. To detect the viable cells that react with MTT to make formazan crystals, 120 μL of supernatant was removed and 100 μL DMSO was added to dissolve the crystals. Untreated cells and DMSO (10%) were used as negative and positive controls, respectively [37]. The percent viability of cells was calculated using equation:(2) % Cell viability=Av. Absorbance of treated cells/Av. Absorbance of control cells×100

C. neoformans cells [4] = assay: Time kill assay; conditions: time-kill profile over 24 h

Procedure for HEK 293: as §3
Procedure for HeLa: as §3

COC(=O)[C@H](Cc1ncn(Cc2cc(C(C)(C)C)cc(C(C)(C)C)c2)c1I)NC(=O)[C@@H](N)Cc1c[nH]c2ccccc12 [10d, Trp-His[1-(3,5-di-tert-butylbenzyl)-5-iodo]-OMe]
IC50 (C. neoformans): 2.20 µg/mL (≈ 3.22 µM) | MIC (C. neoformans): 4.01 µg/mL (≈ 5.87 µM) | IC50 (C. albicans): >35.2 µg/mL | MIC (C. albicans): >64.0 µg/mL | IC50 (C. glabrata): >35.2 µg/mL | MIC (C. glabrata): >64.0 µg/mL | IC50 (C. parapsilosis): >35.2 µg/mL | MIC (C. parapsilosis): >64.0 µg/mL | IC50 (C. krusei): >35.2 µg/mL | MIC (C. krusei): >64.0 µg/mL | IC50 (E. faecalis): 17.6 µg/mL (≈ 25.7 µM) | MIC (E. faecalis): 32.0 µg/mL (≈ 46.8 µM) | IC50 (S. aureus): 17.6 µg/mL (≈ 25.7 µM) | MIC (S. aureus): 32.0 µg/mL (≈ 46.8 µM) | IC50 (P. aeruginosa): >35.2 µg/mL | MIC (P. aeruginosa): >64.0 µg/mL | Fluorescence of cells incubated with FITC-labeled peptide (CLSM) (C. neoformans cells [1]): prominent green fluorescence | PI fluorescence of treated cells (CLSM) [2]: prominent red fluorescence | DAPI fluorescence of treated cells (CLSM) [3]: fragmented bright blue fluorescence | Cytotoxic nature (HEK 293): non-cytotoxic | Cytotoxic nature (HeLa): non-cytotoxic | Hemolytic behavior (Red blood cells (RBCs)): non-hemolytic | % Hemolysis HC10 (Red blood cells (RBCs)): 50.53 µg/mL | % Hemolysis HC50 (Red blood cells (RBCs)): >100 µg/mL | Fold Decrease in MIC (Cryptococcal cells; combination 10d + Amp B): 16 | MIC In Combination (Cryptococcal cells; combination 10d + Amp B): 0.25 µg/mL and 0.250 µg/mL | FICI (Cryptococcal cells; combination 10d + Flu): 0.19 | MIC In Combination (Cryptococcal cells; combination 10d + Flu): 0.501 µg/mL | MIC Alone (Cryptococcal cells): 4.01 µg/mL (≈ 5.87 µM) | CC50 at 18 h (in vitro): > 100 µg/mL | Time after which growth/CFUs of cryptococcal cells dropped or were inhibited (C. neoformans cells [4]): 12 h

COC(=O)[C@H](Cc1ncn(Cc2ccccc2I)c1I)NC(=O)[C@@H](N)Cc1c[nH]c2ccccc12 [10o, Trp-His[1-(2-iodobenzyl)-5-iodo]-OMe]
MIC (C. neoformans): 4.59 µg/mL (≈ 6.58 µM) | IC50 (C. albicans): >35.2 µg/mL | MIC (C. albicans): >64.0 µg/mL | IC50 (C. glabrata): >35.2 µg/mL | MIC (C. glabrata): >64.0 µg/mL | IC50 (C. parapsilosis): >35.2 µg/mL | MIC (C. parapsilosis): >64.0 µg/mL | IC50 (C. krusei): >35.2 µg/mL | MIC (C. krusei): >64.0 µg/mL | IC50 (E. faecalis): 17.6 µg/mL (≈ 25.2 µM) | MIC (E. faecalis): 32.0 µg/mL (≈ 45.9 µM) | IC50 (S. aureus): >35.2 µg/mL | MIC (S. aureus): >64.0 µg/mL | IC50 (P. aeruginosa): >35.2 µg/mL | MIC (P. aeruginosa): >64.0 µg/mL | Fluorescence of cells incubated with FITC-labeled peptide (CLSM) (C. neoformans cells [1]): prominent green fluorescence | PI fluorescence of treated cells (CLSM) [2]: prominent red fluorescence | DAPI fluorescence of treated cells (CLSM) [3]: fragmented bright blue fluorescence | Cytotoxic nature (HEK 293): non-cytotoxic | Cytotoxic nature (HeLa): non-cytotoxic | Hemolytic behavior (Red blood cells (RBCs)): non-hemolytic | % Hemolysis HC10 (Red blood cells (RBCs)): 52.17 µg/mL | % Hemolysis HC50 (Red blood cells (RBCs)): >100 µg/mL | MIC In Combination (Cryptococcal cells; combination 10o + Amp B): 0.287 µg/mL | Effect (Cryptococcal cells; combination 10o + Flu): Additive | Fold Decrease in MIC (Cryptococcal cells; combination 10o + Flu): 1.5 | MIC In Combination (Cryptococcal cells; combination 10o + Flu): 2.999 µg/mL | MIC Alone (Cryptococcal cells): 4.59 µg/mL (≈ 6.58 µM) | CC50 at 18 h (in vitro): > 100 µg/mL | Time after which growth/CFUs of cryptococcal cells dropped or were inhibited (C. neoformans cells [4]): 12 h
